Consider one compound from article PMC11606874, “Structural and in vitro anticancer properties of the kaempferol–lactoferrin complex” (Food Science & Nutrition, 2024).

In the assay the target is T1, lactoferrin (Bos taurus, UniProt P24627).
T1 construct: gene LTF
The assay can be described thus: intrinsic fluorescence quenching titration (Stern-Volmer and double-logarithmic Ka at […] K), synchronous fluorescence, UV-vis difference spectra. The conditions noted are these: read-out: K a (L mol^-1) (converted). Type of assay: binding.

T1 sequence (P24627 20-708): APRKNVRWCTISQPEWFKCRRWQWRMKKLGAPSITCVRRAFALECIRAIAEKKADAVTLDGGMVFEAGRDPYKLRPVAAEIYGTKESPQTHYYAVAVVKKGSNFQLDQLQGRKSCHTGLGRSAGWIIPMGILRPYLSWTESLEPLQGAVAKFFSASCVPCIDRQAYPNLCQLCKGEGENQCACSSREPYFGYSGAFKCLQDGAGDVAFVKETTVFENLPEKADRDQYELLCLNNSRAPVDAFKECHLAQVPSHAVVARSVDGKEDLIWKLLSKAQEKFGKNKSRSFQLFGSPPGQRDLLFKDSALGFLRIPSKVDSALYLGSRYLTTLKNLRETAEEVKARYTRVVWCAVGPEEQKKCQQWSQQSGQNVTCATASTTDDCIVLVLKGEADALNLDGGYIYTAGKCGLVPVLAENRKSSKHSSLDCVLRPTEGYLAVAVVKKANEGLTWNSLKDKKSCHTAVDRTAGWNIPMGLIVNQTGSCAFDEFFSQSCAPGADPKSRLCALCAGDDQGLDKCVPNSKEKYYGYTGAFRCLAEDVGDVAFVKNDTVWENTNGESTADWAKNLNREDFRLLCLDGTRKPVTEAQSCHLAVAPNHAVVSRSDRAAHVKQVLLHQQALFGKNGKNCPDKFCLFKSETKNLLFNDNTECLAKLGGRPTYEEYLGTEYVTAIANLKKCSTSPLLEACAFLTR

Consider `O=c1c(O)c(-c2ccc(O)cc2)oc2cc(O)cc(O)c12` [KAE, kaempferol], for which the Kd was 43.3 µM.
